In patent publication US20230355646A1, “AUTOPHAGY ACTIVATOR” (Resonac Corporation, priority 2020, published 2023):

Columns and labels:
[1] = system: ATG7 gene; assay: ATG7 gene expression promoting effect in human senescent fibroblasts (quantitative real-time PCR); assay type: cell-based
Method: (§1) Normal human fibroblasts (NB1RGB, RIKEN BRC Cell Bank) were cultured until confluent in D-MEM medium (manufactured by Sigma-Aldrich) to which 10% fetal bovine serum (manufactured by MP Biomedicals) was added. Thereafter, the cells were treated with 250 μM aqueous hydrogen peroxide for 2 hours, and cultured for 24 hours in D-MEM medium to which fresh 10% fetal bovine serum was added. The treatment with aqueous hydrogen peroxide and the cell culture operation were repeated three times, and the obtained fibroblasts were used as senescent fibroblasts.
(§2) The prepared senescent fibroblasts were prepared at a seeding density of 10000 cells/cm^2 and cultured for 24 hours in D-MEM medium (manufactured by Sigma-Aldrich) to which 10% fetal bovine serum (manufactured by MP Biomedicals) was added. […]
(§3) Then, using Nucleospin (registered trademark) RNA kit (manufactured by Takara Bio Inc.), RNA was extracted from senescent fibroblasts or normal human fibroblasts in each example, and cDNA was synthesized from the obtained RNA. Next, using this cDNA as a template, by quantitative real-time PCR, the expression level of each gene was quantified using primers (manufactured by Takara Bio Inc.) specific to the LC3 gene, ATG5 gene, and ATG7 gene, respectively. […]

[2] = system: LC3 gene; assay: LC3 gene expression promoting effect in human senescent fibroblasts (quantitative real-time PCR); assay type: cell-based
Method: as §1, §2, §3

[3] = 10^−2% (V/V) methyl hesperidin or hesperidin, additional ingredient where in the example, 24 hours, Comparative Example 1 (DMSO) = 1.00
[4] = compared to DMSO only of Comparative Example 1

COc1ccc([C@@H]2CC(=O)c3c(O)cc(O[C@@H]4O[C@H](CO[C@@H]5O[C@@H](C)[C@H](O)[C@@H](O)[C@H]5O)[C@@H](O)[C@H](O)[C@H]4O)cc3O2)cc1O [Comparative Example 2, hesperidin]
Relative gene expression level ATG7 [1, 3]: 0.76
expression level of the ATG7 gene (in words) [1, 4]: more decreased
Relative gene expression level LC3 [2, 3]: <0
expression level of the LC3 gene (in words) [2, 4]: more decreased
